Laboratory results from patent US8048866B2, “Preventive and/or therapeutic agent for calcipenia” (Nippon Beet Sugar MFG., Co., Ltd., priority 2004, dated 2011).

Legend:
Holstein calving cows [1] = experiment: Influence of DFA III and DFA IV on calcium concentration in blood in calving of cows (OCPC method); assay type: in vivo, cow; settings: for Increase of calcium concentration in blood from immediately after calving: in 6 hours, 100 g orally
Description: The influence of DFA III and DFA IV on the calcium concentration in blood in calving of cows was examined.
(§1) As test cows, 15 Holstein calving cows with two or more calvings were used, and divided into three groups each consisting of 5 cows. Immediately after calving, the blood was sampled from the tail root. 300 ml of warm water was orally administered to the control group. 100 g of DFA III and 100 g of DFA IV each dissolved in 250 ml of warm water were orally administered to the DFA III group and the DFA IV group respectively. The blood was sampled from the tail root after 6 hours and 60 hours from the blood sampling immediately after calving. The degree of the udder edema was also confirmed by palpation.
Regarding the feeds supplied after calving, the cows were caused to freely take 20 kg/day of TMR containing a grass silage, a corn silage and a concentrate (hereinafter referred to as a mixed feed: forage rate 47.8%), 4 kg of a concentrate and hay. Conditions of calculating the requirement are as follow: day after calving—3, 2 calvings, body weight—612 kg, milk yield—20 kg, milk fat rate—4.0%, and milk protein rate—3.2%. NEl indicates a net energy of lactation, and efNDF indicates an effective neutral detergent insoluble fiber.
(§2) The blood was centrifuged at 3,000 rpm for 10 minutes, and the serum portion was stored at −30° C. until analysis. Calcium was analyzed by the OCPC method. The degree of udder was examined by palpation. A heavy degree was defined as 4, a medium degree as 3, a light degree as 2 and a normal degree as 1 respectively.

mice = experiment: Acute toxicity test for 10 days using mice; assay type: in vivo; settings: oral administration, 1,000 mg/kg
Description: The dose of DFA III is not particularly limited to the foregoing range. When it is ingested over a long period of time for preservation of the health or for maintenance of the health, the dose may be lower than the foregoing range.

[2] = system: cows with 2 or more calvings; experiment: Influence of DFA III supply at a dry period on calcium concentration in blood of cows after calving; assay type: in vivo, cow
Description: The influence of the DFA III supply at a dry period on the calcium concentration in blood of cows after calving was tested in vivo using actual cows.
It has been so far considered that DFA III is administered to cows after caving which is effective for improving the calcium concentration in blood. On the other hand, the calcium concentration in blood is already decreased immediately after calving. As the decree of decrease is greater, vitality and appetite are weak and tend to be slowly recovered. Accordingly, DFA III was supplied at a dry period, and the influence of DFA III on the calcium concentration in blood immediately after calving was examined.
DFA III supply; DFA III (50 g/day) was supplied at a dry period from 3 weeks before an expected date of calving through calving.
Without DFA III supply; DFA III was not supplied before calving.
90 g of DFA III was, each time, supplied to both of the DFA III supply group and the group without DFA supply 0 hour and 6 hours after calving. At a dry period, 4 kg/day of a feed obtained by adding 12,000 IU of vitamin D to 4 kg of a feed was supplied to both the areas.
Cows with 2 or more calvings were used.
As DFA III supply cows, 10 cows which experienced calving after Apr. 30, 2004 were subjected to a test. As cows without DFA III supply, 38 cows which experienced calving from Jul. 14, 2002 through Apr. 18, 2004 and to which DFA III was not supplied at a dry period were used. Since the test started on Jul. 14, 2002, the test cows include 15 cows which experienced calving twice (8 DFA III supply cows and 7 cows without DFA III supply) during this period.
In dry cows, milking was stopped 2 months before an expected date of calving. Then, a concentrate (crude protein content 18%, TDN 72%, Ca 0.9% P 0.5%) was supplied in an amount of 2 kg/day until 3 weeks before an expected date of calving. A concentrate (crude protein content 20%, TDN 75%, Ca 0.2%, P 0.5%) was supplied in an amount of 4 kg/day from 3 weeks before an expected date of calving through calving. As another feed, the cows were caused to freely take hay (crude protein content from 6 to 8%, TDN from 45 to 55%, Ca from 0.2 to 0.3%, P 0.2%) during the entire dry period. A mixture obtained by adding 50 g of DFA III to 4 kg of the concentrate given 3 weeks before an expected date of calving was supplied to the DFA III supply cows. As the feeds supplied after calving, the cows were caused to freely take 20 kg/day of TMR containing a grass silage a corn silage and a concentrate (crude feed rate 47.8%), 4 kg of a concentrate (crude protein content 18%, TDN 72%, Ca 0.9%, P 0.5%) and hay.
In all cows, the blood was sampled from the tail root immediately after calving. Further, the blood sampling was performed from the same tail root after 6 hours, 24 hours and 72 hours from the blood sampling immediately after confinement (0 hour). In 0 hour and 6 hours for blood sampling, 90 g of DFA III, 100 g of calcium carbonate and 10,000 IU of vitamin D dissolved in warm water were orally administered each time.
The blood was centrifuged at 3,000 rpm for 10 minutes, and the serum portion was stored at −30° C. until analysis. The calcium concentration was measured by the OCPC method.

Holstein cows = experiment: Effect of supply of DFA III and DFA IV on calcium metabolism, lactation and urine excretion amount of cows; assay type: in vivo, cow; settings: supplied feeds and 100 g of DFA; for Excretion amount of calcium in urine / Milk fat rate / Milk protein rate / Milk yield: main period of 5 days
Description: The effect of supply of DFA III and DFA IV on calcium metabolism, lactation and a urine excretion amount of cows was examined.
Nine Holstein cows (2 to 4 calvings, 90 to 120 days after calving, average body weight 642 kg, average milk yield 36 kg) were divided into three groups, and subjected to a test by 3×3 Latin squares with one period of 15 days (preliminary period of 10 days and main period of 5 days).
Regarding supplied feeds for a day, a grass silage, a cone silage and a beat pulp were used in fixed amounts of 3, 4 and 2 kg in terms of a dry weight respectively, and an amount of a concentrate (crude protein content 18% TDN content 74%) was ⅓ the milk yield. Further, a mineral agent and a vitamin agent were not supplied, and an insufficient feed for each cow was supplemented by supplying hay. These supplied feeds have the same contents in all cows, and they were caused to freely drink water.
The foregoing supply only was applied to a control group Supplied feeds and 100 g of DFA III were applied to a DFA III group, and supplied feeds and 100 g of DFA IV were applied to a DFA IV group.
The cows were accommodated in a metabolism test laboratory, and milking was conducted twice at 5 o'clock and 17 o'clock. The milk yield was measured and milk composition were analyzed for five days as the main period. The total amount of feces and urine was recovered for five days as the main period, and the fixed amounts thereof were mixed and subjected to analysis.
As is apparent from the results, no great difference was found among the groups in the dry matter intake and the calcium intake. The milk yield was increased in the DFA III and DFA IV groups by approximately 1 kg in comparison to the control group. No difference was found either among the groups in the milk fat rate and the milk protein rate. […] In the table, TDN indicates a total amount of a digestible nutrient.

Holstein calving cows [3] = experiment: Degree of udder edema by palpation after oral administration of DFA III and DFA IV; assay type: in vivo, cow; settings: time 0, before administration; heavy 4, medium 3, light 2, normal 1
Description: as §1, §2

Holstein calving cows [4] = experiment: Effect of DFA III and calcium and vitamin D on calcium concentration in blood at the time of calving of cows; assay type: in vivo, cow
Description: The effect of DFA III and calcium and vitamin D on the calcium concentration in blood at the time of calving of cows was examined.
As test cows, 15 Holstein calving cows with 2 or more calvings were used, and divided into three groups each consisting of 5 cows. Immediately after calving, the blood was sampled from the tall root. 100 g of DFA III dissolved in 250 ml of warm water was orally administered to the DFA III group. DFA III and calcium carbonate in amounts of 100 g each which were dissolved in 200 ml of warm water were orally administered to the DFA III+Ca group. DFA III and calcium carbonate in amounts of 100 a each and 10,000 IU of vitamin D which were dissolved in 200 ml of warm water were orally administered to the DFA III+Ca+VD group. The blood was sampled from the tail root after 6, 24 and 70 hours from the blood sampling immediately after calving.
The supply of the feeds and the analyses of the calcium concentration in blood were conducted in the same manner as in Example 3.

rumen microorganisms = experiment: Degradability of DFA III and DFA IV in the rumen (incubation with rumen liquid inoculum); assay type: in vitro ADME, Holstein steer and cow; settings: 400 mg/dl in culture solution, 39° C., 0 to 24 hours
Description: In ruminants, for DFA III and DFA IV to accelerate calcium absorption, they have to reach intestines by avoiding degradation thereof in the rumen with microorganisms. Accordingly, degradability of DFA III and DFA IV in the rumen was examined.
A rumen liquid was collected from each of a rumen cannula-fitted Holstein steer to which 4 kg of a concentrate was supplied in consideration of controlling nutrition of a dry cow and which was caused to freely take hay and a cow in which a milk yield was 30 kg and a rate of a concentrate in a supplied feed was 55%. The liquid was filtered through a four-fold gauze to form an inoculum.
As a buffer, a 0.25 M phosphate buffer (KH2PO4 6.8045 g+Na2HPO4.12H2O 26.8605 g/500 ml, pH 7.0) was used, and 1 g of DFA III or DFA IV per 100 ml of this buffer was added.
30 ml of the inoculum and 20 ml of the buffer were added to a 200-ml conical flask. […] In 0, 1, 2, 4, 8, 12 and 24 hours of the culturing, the culture solution was collected from the flask, and analyzed.
The culture solution in the flask was stirred. After 20 ml of the culture solution was collected, 0.1 ml of sulfosalicylic acid (20% solution was added for deproteinization. After centrifugation by 8,000 rotations for 10 minutes, the solution was filtered with a filter paper of 0.45 μm, and DFA III and DFA IV were analyzed by liquid chromatography. […]

[5] = 6 hours after first blood sampling, 100 g orally immediately after calving
[6] = time 0: blood sampling immediately after calving, before oral administration of 100 g

SMILES | Calcium concentration in blood (Holstein calving cows [1]; [5]) | Increase of calcium concentration in blood from immediately after calving (Holstein calving cows [1]) | Calcium concentration in blood (Holstein calving cows [1]; [6]) | Increase of milk yield in comparison to the control group (Holstein cows) | Excretion amount of calcium in urine (Holstein cows) | Milk fat rate (Holstein cows) | Milk protein rate (Holstein cows) | Milk yield (Holstein cows) | Degree of udder edema (Holstein calving cows [3]) | also measured
OC[C@H]1O[C@@]2(CO[C@]3(CO)O[C@H](CO)[C@@H](O)[C@@H]3O2)[C@@H](O)[C@@H]1O [DFA III, di-D-fructfuranose-1,2;2,3′ dianhydride] | 8.3 mg/dL | approximately 1 mg/dl | 7.3 mg/dL | approximately 1 kg | 4.2 g/day | 3.86% | 3.15% | 35.6 kg/day | 3.3 | Calcium concentration in blood (Holstein calving cows [1]; 60 hours after first blood sampling, 100 g orally immediately after calving): 8.0 mg/dL; Death in acute toxicity test (mice): no death example was observed; Calcium concentration in blood immediately after calving according to the parity ([2]; 10 DFA III supply cows, DFA III at dry period): not decreased by increasing the parity; Change in calcium concentration in blood after calving (0 to 72 hours) ([2]; Yes-Present calving, 8 cows, DFA III at dry period): shifted at a higher level than in the previous calving; Time for calcium concentration in blood to reach the normal value (9 to 11 mg/dl) ([2]; after calving, DFA III supplied at a dry period, 90 g DFA III, calcium carbonate and vitamin D at 0 and 6 hours): approximately 6 hours; Increase of calcium concentration in blood immediately after calving in comparison to the previous calving ([2]; present calving with DFA III 50 g/day at dry period vs previous calving without): 1.0 mg/dL; Calcium concentration in blood immediately after calving (average) ([2]; present calving, DFA III 50 g/day at a dry period from 3 weeks before expected date of calving): 8.1 mg/dL; Calcium concentration in blood immediately after calving, individual cows ([2]; present calving, DFA III supply at dry period): ≥ 7 mg/dL; Calcium concentration in blood (Holstein calving cows [4]; 6 hours after first blood sampling, oral administration immediately after calving): 7.9 mg/dL; Calcium concentration in blood (Holstein calving cows [4]; 70 hours after first blood sampling, oral administration immediately after calving): 8.5 mg/dL; Increase of calcium concentration in blood in comparison to that immediately after calving (Holstein calving cows [4]; in 6 hours): 1.2 mg/dL; Calcium concentration in blood (Holstein calving cows [4]; time 0: immediately after calving, before oral administration): 6.7 mg/dL
OCC12OCC3OC(CO)(OCC(O1)C(O)C2O)C(O)C3O [DFA IV, di-D-fructfuranose-2,6:6.2′ dianhydride] | 8.0 mg/dL | approximately 1 mg/dl | 7.1 mg/dL | approximately 1 kg | 4.0 g/day | 3.92% | 3.11% | 35.2 kg/day | 3.1 | Degradation in rumen culture solution (rumen microorganisms; any of the inoculums): not degraded; Amount recovered in each incubation time (rumen microorganisms; liquid chromatography): approximately the total amounts thereof were recovered
